Results as given in patent US8748485B2, “Compound and medical use thereof” (Ono Pharmaceuticals Co., Ltd., priority 2010, dated 2014).

Experiments:
[1] = Kinetic study in dogs (effect of salt or crystal form on blood kinetics); type: in vivo; conditions: 6 mg/3 mL/kg expressed in terms of levodopa
Protocol: (2) Kinetic Study in Dogs (Effect of Salt or Crystal Form on Blood Kinetics)
In general, it is considered that when the salt or crystal form is different, a difference in solubility thereof or the like affects blood kinetics and sometimes causes a difference in potency of efficacy.
The collection of a plasma sample was carried out according to the previous section (1). However, the dose was set to 6 mg/3 mL/kg.
The preparation of an analytical sample and analysis were carried out according to the previous section (1).
In the above Table 6, a change over time in the concentration (μg/mL) of levodopa observed in the plasma when the compound of the present invention produced in Example 6, the compound of the present invention produced in Example 9, or the compound of the present invention produced in Example 10 was orally administered to dogs is shown. The numeral expressed with ± in the parenthesis represents a standard deviation.

[2] = system: rat model injected with 6-hydroxydopamine into the medial forebrain bundle; test: Rotation test in model injected with 6-hydroxydopamine into medial forebrain bundle; type: in vivo, rats (male Crl:CD(SD)IGS); conditions: 6-OHDA rats
Text: In the experiment, male Crl:CD(SD)IGS rats (Charles River Japan, Inc.) supplied at 5 weeks of age were used. The rats were housed in Econ cages (4 or less rats per cage) and were raised by giving free access to solid feed CRF-1 (Oriental Yeast Co., Ltd.) and tap water (in a water bottle) until they were subjected to the experiment. When acclimation after shipping was completed, each of the Crl:CD(SD)IGS rats at 6 weeks of age was anesthetized with pentobarbital sodium (Somnopentyl (registered trademark) injectable solution, 35 mg/kg, intraperitoneal injection). Subsequently, for the purpose of preventing damage to norepinephrine neurons by 6-hydroxydopamine (6-OHDA), desipramine (25 mg/kg) was intraperitoneally injected, and the rat was held and fixed by a brain fixation device. A small bone window was opened with a hand drill at a desired site, and 6-OHDA was injected into the medial forebrain bundle according to the brain atlas of Paxinos and Watson using a 30 G cannula (Brain Science Idea. Co. Ltd.) with a needle tip cut at an angle of 45° (site of injection: A=−4.5 mm, L=+1.2 mm, and V=−7.8 mm with respect to the bregma, injection amount: 8 μg/4 μL/8 min/site in each case). […] Thereafter, the burr hole was closed with an instant glue, and then sutured and disinfected with iodine tincture. […] In a rotation test, a device configured such that a black plastic circular cylinder having a diameter of 30 cm and a height of 35 cm was placed upright in a black-painted bowl having an opening diameter of 35 cm and a bottom diameter of 17 cm was used (the height of the curve from the bottom of the bowl to the bottom edge of the cylinder was set to 7 cm). The rat was placed in the device (one rat per device) and acclimated to the device for 30 minutes. Thereafter, a test substance was administered to the rat, and the rat was returned to the same device and videotaped. […] As for the number of rotations, a 360° rotation in one direction was determined to be one rotation. In the case where the direction (body's direction of movement or movement direction) was changed during rotation, the rotation was not included in the count. […] Incidentally, in each case, benserazide which is a dopa decarboxylase inhibitor (8 mg/kg) was orally administered concomitantly. […] In addition, the respective values are each a mean of the values obtained using 11 rats in each group and its standard error.

[3] = Kinetic study in dogs (oral administration, plasma levodopa)
Text: The relationship between the blood concentration of levodopa and side effects in patients who take levodopa has been gradually elucidated. […] In order to reduce the number of doses of levodopa and avoid side effects such as dyskinesia and wearing-off in patients who take levodopa, it is necessary to maintain the blood concentration of levodopa within a therapeutic range as long as possible.
These levodopa prodrugs are prodrugs containing an ester bond, and therefore, it is considered that among a number of enzymes, carboxyesterase plays the most important role in the process of producing levodopa by metabolizing the compound after the compound is administered in vivo. Therefore, as an animal species to be used for performing a kinetic study, dogs in which the organ distribution of carboxyesterase is most similar to that of humans were selected as subjects for evaluation.
The thus obtained drug solution was administered by gavage through a gastric tube into the stomach of dogs (male beagle dogs) which were fasted from the day before the administration. At 15 and 30 minutes, and 1, 2, 4, 6, and 8 hours after administration of the drug solution, 1 mL of blood was collected from a cephalic vein with a heparinized syringe. Immediately after the collection, the collected blood was centrifuged in a desktop centrifuge at 14500 rpm for 45 seconds. Then, acetonitrile containing 0.1125% formic acid was added to the thus obtained plasma in an amount as twice as large as the volume of the plasma, followed by stirring, and then, the resulting sample was stored at −20° C. until measurement.
The sample was thawed on the measurement day, followed by stirring and centrifugation at 13000 rpm for 3 minutes (at 4° C.). The resulting supernatant was filtered and the filtrate was analyzed by LC/MS/MS. The analysis was performed by LC/MS/MS under the following conditions.
Measurement Apparatus: API-5000 (manufactured by Applied Biosystems, Inc.)
Analytical column: CAPCELL PAK CR (1:4) (4.6 mm, I.D.×250 mm, 5 μm)
Analytical column temperature: 40° C.
Mobile phase: A: 5 mM ammonium formate (pH 3.9), B: acetonitrile (A/B=17/3)
Detection (levodopa): m/z (precursor): 196.19, m/z (product): 134.99
DP (Declustering Potential): −60
CE (Collision Energy): −25
CXP (Collision Cell Exit Potential): −17
Incidentally, the numerical value in the column which indicates the dose expressed in terms of levodopa refers to a dose equivalent to that of levodopa.

p53R2 = test: Mutagenicity assay using mammalian cells (NESMAGET method); type: cell-based; conditions: for Mutagenicity assay (NESMAGET) Concentration at which mutagenicity was determined to be positive: concentration at which relative luciferase activity of p53R2 exceeded 200% (vehicle control 0.3% dimethylsulfoxide = 100%); for determination of mutagenicity: positive = relative luciferase activity of p53R2 exceeded 200%, compound of the present invention up to 200 μg/mL
Protocol: In the treatment of Parkinson's disease and/or Parkinson's syndrome, there is a possibility that a levodopa prodrug is continued to be taken over a long period of time of several years to several decades. Therefore, an evaluation was carried out as to whether or not the compound of the present invention has mutagenicity by a mutagenicity assay using mammalian cells.
A mutagenicity assay using mammalian cells was carried out as a commissioning test to be undertaken by Nissin Foods Holdings Co., Ltd. The present method also called NESMAGET method is a method in which the expression of p53R2 which is a DNA repair gene is detected by luciferase activity, and the specific experimental technique is described in JP-A-2005-000024 and Japanese Patent No. 4243716. In the determination as to whether or not the result of this test was positive, the luciferase activity of p53R2 in the case of a vehicle control (0.3% dimethylsulfoxide) was taken as 100%, and a concentration at which a relative luciferase activity exceeded 200% was determined to be “concentration at which mutagenicity was determined to be positive”.

[4] = in vivo; cited from earlier work
[5] = male, beagle, dog, in vivo, po, 3 mg/kg

Structure (SMILES) | AUC (area under the blood concentration-time curve of levodopa) ([3]; dog, in vivo, po, 3 mg/kg) | Cmax/C6 hr (ratio of maximum plasma concentration and plasma concentration at 6 hours after oral administration, levodopa) [3, 5] | Absorption through oral administration [1] | Mutagenicity assay (NESMAGET) Concentration at which mutagenicity was determined to be positive (p53R2) | determination of mutagenicity (p53R2) | also measured
CC(C)(OC(=O)c1ccccc1)C(=O)Oc1ccc(C[C@H](N)C(=O)O)cc1OC(=O)C(C)(C)OC(=O)c1ccccc1 [Example 10, (2S)-2-amino-3-(3,4-bis((2-(benzoyloxy)-2-methylpropanoyl)oxy)phenyl)propanoic acid] |  |  | can be absorbed through oral administration |  |  | 
CC(C)(OC(=O)c1ccccc1)C(=O)Oc1ccc(C[C@H](N)C(=O)O)cc1OC(=O)C(C)(C)OC(=O)c1ccccc1 [Example 9, (2S)-2-amino-3-(3,4-bis((2-(benzoyloxy)-2-methylpropanoyl)oxy)phenyl)propanoic acid] |  |  | can be absorbed through oral administration |  |  | rotational behavior compared with the compound produced in Example 5 ([2]; used in place of Example 5): the same results were obtained
CC(C)(COC(=O)c1ccsc1)C(=O)Oc1ccc(C[C@H](N)C(=O)O)cc1OC(=O)C(C)(C)COC(=O)c1ccsc1.Cl [Reference Example 11, (2S)-2-Amino-3-(3,4-bis((2,2-dimethyl-3-((thiophene-3-carbonyl)oxy)propanoyl)oxy)phenyl)propanoic acid hydrochloride] | 0.52 μg^+ hr/mL | 23.9 |  | 1.4 µg/mL | positive for mutagenicity | 
N[C@@H](Cc1ccc(O)c(O)c1)C(=O)O [Levodopa, L-3,4-dihydroxyphenylalanine] |  | 913.8 |  |  |  | time after administration at which the number of rotations reached a maximum value ([2]; oral, levodopa 30 mg/kg or Example 5 100 mg/kg expressed in terms of levodopa, benserazide 8 mg/kg): 20 min; maximum value of the number of rotations per 10 minutes ([2]; oral, levodopa 30 mg/kg or Example 5 100 mg/kg expressed in terms of levodopa, benserazide 8 mg/kg concomitantly, N=11): about 100 times; AUC (area under the blood concentration-time curve of levodopa) ([3]; levodopa in plasma, fasted male beagle dogs, oral gavage, dose 3 mg/kg expressed in terms of levodopa): 0.96 μg^+ hr/mL; AUC ([3]; male, beagle, dog, plasma, po, 3 mg/kg): 960 ng·h/mL; percentage of the absorbed levodopa distributed in the central nervous system [4]: less than 1%; share of the absorbed levodopa metabolized by aromatic L-amino acid decarboxylase (AADC) in organs other than the central nervous system [4]: ≥ 95%
CC(C)(OC(=O)c1ccccc1)C(=O)Oc1ccc(C[C@H](N)C(=O)O)cc1OC(=O)C(C)(C)OC(=O)c1ccccc1.Cc1ccc(S(=O)(=O)O)cc1 [Example 6, (2S)-2-amino-3-(3,4-bis((2-(benzoyloxy)-2-methylpropanoyl)oxy)phenyl)propanoic acid tosylate] |  |  | can be absorbed through oral administration |  |  | 

The next lines start with results.

AUC (area under the blood concentration-time curve of levodopa) ([3]; dog, in vivo, po, 3 mg/kg) | Cmax/C6 hr (ratio of maximum plasma concentration and plasma concentration at 6 hours after oral administration, levodopa) [3, 5] | Structure (SMILES) | Absorption through oral administration [1] | Mutagenicity assay (NESMAGET) Concentration at which mutagenicity was determined to be positive (p53R2) | determination of mutagenicity (p53R2) | also measured
0.81 μg^+ hr/mL | 4.3 | CC(C)(COC(=O)c1ccccc1)C(=O)Oc1ccc(C[C@H](N)C(=O)O)cc1OC(=O)C(C)(C)COC(=O)c1ccccc1.Cl [Reference Example 40, (S)-2-Amino-3-(3,4-bis((3-(benzoyloxy)-2,2-dimethylpropanoyl)oxy)phenyl)propanoic acid hydrochloride] |  | 16 µg/mL | positive for mutagenicity | 
0.22 μg^+ hr/mL | 7.4 | COc1ccccc1C(=O)OCC(C)(C)C(=O)Oc1ccc(C[C@H](N)C(=O)O)cc1OC(=O)C(C)(C)COC(=O)c1ccccc1OC.Cl [Reference Example 16] |  | 84 µg/mL | positive for mutagenicity | 
